# Data reported in patent publication US8007782B2, “Combination bacteriolytic therapy for the treatment of tumors” (priority 2003, dated 2011).
# Key:
# [1] = tested on: HCT116, HuCC-T1, HT-29, SW480, B16 and DLD-1 tumors; test: Low dose HTI-286 and L-NNA on various xenografts (FIG. 10); type: in vivo, mice; details: HTI-286 1 mg/kg without L-NNA; L-NNA 10 mg/kg without HTI-286
# Text: FIG. 10A-10F Quantification of the effects of C. novyi-NT plus low doses of HTI-286 and L-NNA on various xenografts (HCT116, HuCC-T1, HT-29, SW480, B16, and DLD-1, respectively).
# […] […] The p-values are based on comparisons between L-NNA+HTI-286 and L-NNA+HTI-286+C. novyi-NT spores. The p-value is indicated only when the result was statistically significant.
# All animal protocols were designed in accordance with the Guide for the Care and Use of Laboratory Animals (NIH Publication 86-23) and were approved by the Johns Hopkins University Institutional Animal Care and Use Committee. Six to eight week old mice were implanted subcutaneously on one flank with 3 to 6 million cancer cells. Establishment of tumors of 150 to 500 mm3 took 8 to 21 days, depending on the cell type. C. novyi-NT spores (300×106) and anti-microtubule agents were generally administered by a single intravenous injection through the tail vein in a total volume of 300 to 500 ul phosphate-buffered saline (PBS). Quantitative assessment of tumor growth was performed by measuring subcutaneous tumor grafts (major and minor axis) using electronic calipers. Tumor volume was calculated using the equation: length×width2×0.5. Progression free survival was defined as the length of time following treatment before any increase in tumor volume was observed. Mice were considered “cured” if no tumor was evident three months after treatment. […]
# [2] = tested on: tumor blood flow in HCT116 xenografts; test: Assessment of blood perfusion (Hoechst 33342) in HCT116 xenografts; type: in vivo, mice; details: HTI-286 1.7 mg/kg or docetaxel 50 mg/kg iv, 3 and 24 hr after treatment
# Protocol: Three or 24 hours after treatment, mice were intravenously injected with Hoechst 33342 (40 mg/kg) and euthanized two minutes later. Tumors were cryosectioned and viewed by fluorescence microscopy after counter-staining with acridine orange (AO). Endothelial cells are stained blue when they have taken up the Hoechst 33342 dye. Adjacent sections were stained with MECA-32 monoclonal antibody, a vascular endothelium-specific marker. Arrows point towards normal blood vessels unaffected by HTI-286 treatment in overlying skin.
# Mice bearing HCT116 xenografts of 300 to 500 mm3 were injected intravenously with anti-microtubule agents. At various times thereafter, they were intravenously injected with Hoechst 33342 (40 mg/kg), then euthanized two minutes later by CO2 narcosis. Tumors were fixed in Tissue-Tek OTC compound (Sakura Finetek, Torrance, Calif.) and stored at −80° C. Frozen sections 10 microns in thickness were prepared with a Leica Microsystems cryostat and counterstained with acridine orange, 7.5 ug/ml, in PBS for 5 minutes. […] At least three sections of each of three tumors, representing middle and distal parts of the tumor, were examined under fluorescence microscopy for each agent tested, and representative results are illustrated in the figures. […]
# [3] = tested on: Glucose Transporter-1 (Glut-1); test: Immunohistochemistry for Glut-1 (hypoxia marker) in HCT116 xenografts; type: in vivo, mice; details: HTI-286 1.7 mg/kg or docetaxel 50 mg/kg iv, 6 hr after treatment
# Protocol: Mice were euthanized six hours after treatment. Tumors were sectioned and H & E stained. Adjacent sections were stained for Glut-1 expression, a marker for hypoxia. Cells positive for Glut-1 appear brown. Arrows indicate examples of hemorrhage.
# Paraffin sections were deparaffinized, incubated with proteinase K (Invitrogen), heated at 95° C. for 20 min in citrate buffer (pH 6), and treated with peroxidase blocking reagent (Dako). Sections were incubated with a monoclonal antibody against Glucose Transporter-1 (Glut-1, Dako) followed by a biotin-conjugated secondary antibody (Pierce). A third layer consisting of HRP-conjugated anti-biotin (DAKO) was followed by diaminobenzidine (Sigma) staining. Sections were counterstained with eosin.
# Two independent tests of this hypothesis were performed. First, we directly assessed hypoxia within tumors by staining with an antibody to Glucose Transporter-1 (Glut-1). Glut-1 has been extensively studied and shown to be specifically expressed only in hypoxic regions (Airley et al., 2001).
# [4] = Weight loss after COBALT; type: in vivo, nude mice; details: drug dose 1.7 mg/kg; maximum average weight loss relative to weight one day prior to treatment; HCT116 xenografts
# Text: All animal protocols were designed in accordance with the Guide for the Care and Use of Laboratory Animals (NIH Publication 86-23) and were approved by the Johns Hopkins University Institutional Animal Care and Use Committee. Six to eight week old mice were implanted subcutaneously on one flank with 3 to 6 million cancer cells. Establishment of tumors of 150 to 500 mm3 took 8 to 21 days, depending on the cell type. C. novyi-NT spores (300×106) and anti-microtubule agents were generally administered by a single intravenous injection through the tail vein in a total volume of 300 to 500 ul phosphate-buffered saline (PBS). Quantitative assessment of tumor growth was performed by measuring subcutaneous tumor grafts (major and minor axis) using electronic calipers. Tumor volume was calculated using the equation: length×width2×0.5. Progression free survival was defined as the length of time following treatment before any increase in tumor volume was observed. Mice were considered “cured” if no tumor was evident three months after treatment. Animals were weighed at least twice a week and carefully observed for signs of toxicity every day for the first week following treatment and then twice a week thereafter. At least five mice were used for each treatment arm described in the Experimental Results.
# This toxicity was observed only when the combination of C. novyi-NT spores and the drugs was administered and not with either the bacteria or the drugs alone. […] Though major tumor regressions were common, few mice died as a result of therapy (Table 2) No deaths occurred after treatment with the microtubule stabilizers plus C. novyi-NT, while 4% to 8% of mice treated with microtubule destabilizers plus C. novyi-NT died. The only other toxicity observed was transient weight loss (Table 3). Mice treated with the drugs alone lost ˜5 to 10% of their body weight within 7 days, while weight loss after treatment with C. novyi-NT plus these drugs varied from 8% to 18%. All weights recovered to pre-treatment levels within two weeks.
smiles,measurement,setting,value
"CN[C@H](C(=O)N[C@H](C(=O)N(C)[C@H](/C=C(\C)C(=O)O)C(C)C)C(C)(C)C)C(C)(C)c1ccccc1 [HTI-286, N,β,β-trimethyl-L-phenylalanyl-N^1-[(1S,2E)-3-carboxy-1-isopropylbut-2-enyl]-N^1,3-dimethyl-L-valinamide]",effects on tumor growth when administered without the other agent,[1],no significant effects on tumor growth
same,blood flow to the tumors (Hoechst 33342 labelling),[2],almost completely inhibited
same,Glut-1 expression (hypoxia marker) in tumors,[3],large amounts of Glut-1
same,Weight Loss (%),[4],11.4%
